# Test results: patent US8952024B2, “Herbicidal pyrimidone derivatives” (E I du Pont de Nemours and Company, priority 2009, dated 2015)
# Experiments:
# Assay type in all cases: in vivo
# [1] = tested on: barnyardgrass (Echinochloa crus-galli); assay: Test A pre-/postemergence plant response
# Excerpt: (§1) Seeds of barnyardgrass (Echinochloa crus-galli), large crabgrass (Digitaria sanguinalis), giant foxtail (Setaria faberii), morningglory (Ipomoea spp.), pigweed (Amaranthus retroflexus), velvetleaf (Abutilon theophrasti), wheat (Triticum aestivum) and corn (Zea mays) were planted into a blend of loam soil and sand and treated preemergence with a directed soil spray using test chemicals formulated in a non-phytotoxic solvent mixture which included a surfactant. At the same time these species were also treated with postemergence applications of test compounds formulated in the same manner.
# (§2) Plants ranged in height from two to ten cm and were in the one- to two-leaf stage for the postemergence treatment. Treated plants and untreated controls were maintained in a greenhouse for approximately ten days, after which time all treated plants were compared to untreated controls and visually evaluated for injury. Plant response ratings, summarized in Table A, are based on a 0 to 100 scale where 0 is no effect and 100 is complete control. A dash (-) response means no test result.
# corn (Zea mays) = assay: Test A pre-/postemergence plant response
# Excerpt: as §1, §2
# [2] = tested on: giant foxtail (Setaria faberii); assay: Test A pre-/postemergence plant response
# Excerpt: as §1, §2
# [3] = tested on: large crabgrass (Digitaria sanguinalis); assay: Test A pre-/postemergence plant response
# Excerpt: as §1, §2
# [4] = tested on: morningglory (Ipomoea spp.); assay: Test A pre-/postemergence plant response
# Excerpt: as §1, §2
# [5] = tested on: pigweed (Amaranthus retroflexus); assay: Test A pre-/postemergence plant response
# Excerpt: as §1, §2
# [6] = tested on: velvetleaf (Abutilon theophrasti); assay: Test A pre-/postemergence plant response
# Excerpt: as §1, §2
# [7] = tested on: wheat (Triticum aestivum); assay: Test A pre-/postemergence plant response
# Excerpt: as §1, §2
# [8] = tested on: barnyardgrass (Echinochloa crus-galli); assay: Test B flooded paddy test; settings: for Plant response rating, Flood, Barnyardgrass: 250 g ai/ha, flooded paddy test, visual rating on 0 to 100 scale (0 no effect, 100 complete control) after 13 to 15 days; for Plant response rating, Barnyardgrass: Flood (flooded paddy test), 13 to 15 days
# Excerpt: (§3) Plant species in the flooded paddy test consisted of rice (Oryza sativa), umbrella sedge (Cyperus difformis), ducksalad (Heteranthera limosa) and barnyardgrass (Echinochloa crus-galli) grown to the 2-leaf stage for testing. At the time of treatment, test pots were flooded with water to 3 cm above the soil surface, treated by application of test compounds directly to the paddy water, and then maintained at that water depth for the duration of the test.
# (§4) Treated plants and controls were maintained in a greenhouse for 13 to 15 days, after which time all treated plants were visually evaluated and compared to controls. Plant response ratings, summarized in Table B, are based on a scale of 0 to 100 where 0 is no effect and 100 is complete control. A dash (-) response means no test result.
# [9] = tested on: ducksalad (Heteranthera limosa); assay: Test B flooded paddy test; settings: for Plant response rating, Flood, Ducksalad: 250 g ai/ha, flooded paddy test, visual rating on 0 to 100 scale (0 no effect, 100 complete control) after 13 to 15 days; for Plant response rating, Ducksalad: Flood (flooded paddy test), 13 to 15 days
# Excerpt: as §3, §4
# rice (Oryza sativa) = assay: Test B flooded paddy test; settings: for Plant response rating, Flood, Rice: 250 g ai/ha, flooded paddy test, visual rating on 0 to 100 scale (0 no effect, 100 complete control) after 13 to 15 days; for Plant response rating, Rice: Flood (flooded paddy test), 13 to 15 days
# Excerpt: as §3, §4
# [10] = tested on: umbrella sedge (Cyperus difformis); assay: Test B flooded paddy test; settings: for Plant response rating, Flood, Sedge, Umbrella: 250 g ai/ha, flooded paddy test, visual rating on 0 to 100 scale (0 no effect, 100 complete control) after 13 to 15 days; for Plant response rating, Sedge, Umbrella: Flood (flooded paddy test), 13 to 15 days
# Excerpt: as §3, §4
# [11] = Postemergence, 125 g ai/ha, 0 to 100 scale where 0 is no effect and 100 is complete control
# [12] = Postemergence, 500 g ai/ha, 0 to 100 scale, 0 = no effect, 100 = complete control, approx. ten days
# [13] = Preemergence, 125 g ai/ha, 0 to 100 scale, 0 = no effect, 100 = complete control
# [14] = Preemergence, 500 g ai/ha, visual injury, 0 to 100 scale (0 no effect, 100 complete control), approx. ten days
# [15] = 62 g ai/ha, scale of 0 to 100 where 0 is no effect and 100 is complete control
# [16] = Postemergence, 500 g ai/ha, visual injury, 0 to 100 scale (0 no effect, 100 complete control), approx. ten days
# [17] = Preemergence, 500 g ai/ha, 0 to 100 scale, 0 = no effect, 100 = complete control
# [18] = 125 g ai/ha, scale 0 to 100, 0 is no effect, 100 is complete control
# [19] = Flood, 31 g ai/ha, scale 0 to 100 (0 no effect, 100 complete control)
compound,measurement,setting,value
COCCn1c(-c2cccc(Br)c2)ncc(C(=O)C2=C(O)CCCC2=O)c1=O [Compound 139],"Plant response rating, Barnyardgrass",[1]; [11],60
same,"Plant response rating, Barnyardgrass",[1]; [12],80
same,"Plant response rating, Barnyardgrass",[1]; [13],40
same,"Plant response rating, Barnyardgrass",[1]; [14],90
same,"Plant response rating, Corn",corn (Zea mays); [11],20
same,"Plant response rating, Corn",corn (Zea mays); [12],40
same,"Plant response rating, Corn",corn (Zea mays); [13],0
same,"Plant response rating, Corn",corn (Zea mays); [14],20
same,"Plant response rating, Foxtail, Giant",[2]; [11],50
same,"Plant response rating, Foxtail, Giant",[2]; [12],80
same,"Plant response rating, Foxtail, Giant",[2]; [13],20
same,"Plant response rating, Foxtail, Giant",[2]; [14],70
same,"Plant response rating, Crabgrass, Large",[3]; [11],70
same,"Plant response rating, Crabgrass, Large",[3]; [12],80
same,"Plant response rating, Crabgrass, Large",[3]; [13],90
same,"Plant response rating, Crabgrass, Large",[3]; [14],100
same,"Plant response rating, Morningglory",[4]; [11],100
same,"Plant response rating, Morningglory",[4]; [12],100
same,"Plant response rating, Morningglory",[4]; [13],0
same,"Plant response rating, Morningglory",[4]; [14],80
same,"Plant response rating, Pigweed",[5]; [11],90
same,"Plant response rating, Pigweed",[5]; [12],100
same,"Plant response rating, Pigweed",[5]; [13],70
same,"Plant response rating, Pigweed",[5]; [14],100
same,"Plant response rating, Velvetleaf",[6]; [11],100
same,"Plant response rating, Velvetleaf",[6]; [12],100
same,"Plant response rating, Velvetleaf",[6]; [13],60
same,"Plant response rating, Velvetleaf",[6]; [14],90
same,"Plant response rating, Wheat",[7]; [11],20
same,"Plant response rating, Wheat",[7]; [12],40
same,"Plant response rating, Wheat",[7]; [13],0
same,"Plant response rating, Wheat",[7]; [14],10
same,"Plant response rating, Flood, Barnyardgrass",[8],35
same,"Plant response rating, Barnyardgrass",[8]; [15],10
same,"Plant response rating, Flood, Ducksalad",[9],90
same,"Plant response rating, Ducksalad",[9]; [15],75
same,"Plant response rating, Flood, Rice",rice (Oryza sativa),30
same,"Plant response rating, Rice",rice (Oryza sativa); [15],10
same,"Plant response rating, Flood, Sedge, Umbrella",[10],85
same,"Plant response rating, Sedge, Umbrella",[10]; [15],70
CCc1ccc(-n2c(-c3cccc(C)c3)ncc(C(=O)C3=C(O)CCCC3=O)c2=O)cc1 [Compound 213],"Plant response rating, Barnyardgrass",[1]; [11],20
same,Barnyardgrass plant response rating,[1]; [16],100
same,"Plant response rating, Barnyardgrass",[1]; [13],0
same,"Plant response rating, Barnyardgrass",[1]; [17],30
same,"Plant response rating, Corn",corn (Zea mays); [11],0
same,Corn plant response rating,corn (Zea mays); [16],20
same,"Plant response rating, Corn",corn (Zea mays); [13],0
same,"Plant response rating, Corn",corn (Zea mays); [17],0
same,"Plant response rating, Foxtail, Giant",[2]; [11],10
same,"Foxtail, Giant plant response rating",[2]; [16],40
same,"Plant response rating, Foxtail, Giant",[2]; [13],10
same,"Plant response rating, Foxtail, Giant",[2]; [17],30
same,"Plant response rating, Crabgrass, Large",[3]; [11],20
same,"Crabgrass, Large plant response rating",[3]; [16],50
same,"Plant response rating, Crabgrass, Large",[3]; [13],0
same,"Plant response rating, Crabgrass, Large",[3]; [17],50
same,"Plant response rating, Morningglory",[4]; [11],60
same,Morningglory plant response rating,[4]; [16],100
same,"Plant response rating, Morningglory",[4]; [17],60
same,"Plant response rating, Pigweed",[5]; [11],80
same,Pigweed plant response rating,[5]; [16],100
same,"Plant response rating, Pigweed",[5]; [13],50
same,"Plant response rating, Pigweed",[5]; [17],90
same,"Plant response rating, Velvetleaf",[6]; [11],70
same,Velvetleaf plant response rating,[6]; [16],60
same,"Plant response rating, Velvetleaf",[6]; [13],40
same,"Plant response rating, Velvetleaf",[6]; [17],60
same,"Plant response rating, Wheat",[7]; [11],0
same,Wheat plant response rating,[7]; [16],0
same,"Plant response rating, Wheat",[7]; [13],0
same,"Plant response rating, Wheat",[7]; [17],0
same,"Plant response rating, Flood, Barnyardgrass",[8],30
same,"Plant response rating, Barnyardgrass",[8]; [15],0
same,"Plant response rating, Barnyardgrass",[8]; [18],0
same,Barnyardgrass plant response rating,[8]; [19],0
same,"Plant response rating, Flood, Ducksalad",[9],100
same,"Plant response rating, Ducksalad",[9]; [15],85
same,"Plant response rating, Ducksalad",[9]; [18],90
same,Ducksalad plant response rating,[9]; [19],75
same,"Plant response rating, Flood, Rice",rice (Oryza sativa),20
same,"Plant response rating, Rice",rice (Oryza sativa); [15],0
same,"Plant response rating, Rice",rice (Oryza sativa); [18],0
same,Rice plant response rating,rice (Oryza sativa); [19],0
same,"Plant response rating, Flood, Sedge, Umbrella",[10],90
same,"Plant response rating, Sedge, Umbrella",[10]; [15],80
same,"Plant response rating, Sedge, Umbrella",[10]; [18],85
same,"Sedge, Umbrella plant response rating",[10]; [19],65
